Target: T1, PIKfyve (Homo sapiens, UniProt Q9Y2I7)
T1 construct: endogenous in cells; host or cells: VCaP
Assay: Degradation of PIKfyve proteins in VCaP tumor cells (24 h, Western blot)
Type: cell-based
Details: 37° C., compared with DMSO control, WB, read-out: DC50 (concentration that achieves 50% degradation activity)
Experimental: Method: 200 μL of cells at a density of 5×10^6 cells/ml were inoculated into a 6-well plate, and then different concentrations of drugs were added. The cells were treated at 37° C. for 24 h. The […] was collected and washed with PBS twice. Then, 100-200 μL of 1×SDS lysate was added, and the cell lysate was collected into a centrifuge tube. The cells were disrupted ultrasonically for 10-20 sec, and boiled for 10 min. Protein samples were subjected to SDS-PAGE electrophoresis at a voltage of 90 V, transferred to PVDF membranes at 110 V, blocked with 5% BSA for 4 h, incubated with primary antibodies (PIKfyve, GAPDH) at 4° C. overnight, and incubated with secondary antibodies (anti-Rabbit IgG or anti-Mouse IgG) at room temperature. The membranes were washed with TBST buffer, developed with an ECL developing solution, and then imaged to obtain protein band signals, with single-concentration WB results as shown in FIG. 1. Compared with the DMSO control group, the concentration that achieves 50% degradation activity is defined as DC50.

T1 sequence (Q9Y2I7 whole entry): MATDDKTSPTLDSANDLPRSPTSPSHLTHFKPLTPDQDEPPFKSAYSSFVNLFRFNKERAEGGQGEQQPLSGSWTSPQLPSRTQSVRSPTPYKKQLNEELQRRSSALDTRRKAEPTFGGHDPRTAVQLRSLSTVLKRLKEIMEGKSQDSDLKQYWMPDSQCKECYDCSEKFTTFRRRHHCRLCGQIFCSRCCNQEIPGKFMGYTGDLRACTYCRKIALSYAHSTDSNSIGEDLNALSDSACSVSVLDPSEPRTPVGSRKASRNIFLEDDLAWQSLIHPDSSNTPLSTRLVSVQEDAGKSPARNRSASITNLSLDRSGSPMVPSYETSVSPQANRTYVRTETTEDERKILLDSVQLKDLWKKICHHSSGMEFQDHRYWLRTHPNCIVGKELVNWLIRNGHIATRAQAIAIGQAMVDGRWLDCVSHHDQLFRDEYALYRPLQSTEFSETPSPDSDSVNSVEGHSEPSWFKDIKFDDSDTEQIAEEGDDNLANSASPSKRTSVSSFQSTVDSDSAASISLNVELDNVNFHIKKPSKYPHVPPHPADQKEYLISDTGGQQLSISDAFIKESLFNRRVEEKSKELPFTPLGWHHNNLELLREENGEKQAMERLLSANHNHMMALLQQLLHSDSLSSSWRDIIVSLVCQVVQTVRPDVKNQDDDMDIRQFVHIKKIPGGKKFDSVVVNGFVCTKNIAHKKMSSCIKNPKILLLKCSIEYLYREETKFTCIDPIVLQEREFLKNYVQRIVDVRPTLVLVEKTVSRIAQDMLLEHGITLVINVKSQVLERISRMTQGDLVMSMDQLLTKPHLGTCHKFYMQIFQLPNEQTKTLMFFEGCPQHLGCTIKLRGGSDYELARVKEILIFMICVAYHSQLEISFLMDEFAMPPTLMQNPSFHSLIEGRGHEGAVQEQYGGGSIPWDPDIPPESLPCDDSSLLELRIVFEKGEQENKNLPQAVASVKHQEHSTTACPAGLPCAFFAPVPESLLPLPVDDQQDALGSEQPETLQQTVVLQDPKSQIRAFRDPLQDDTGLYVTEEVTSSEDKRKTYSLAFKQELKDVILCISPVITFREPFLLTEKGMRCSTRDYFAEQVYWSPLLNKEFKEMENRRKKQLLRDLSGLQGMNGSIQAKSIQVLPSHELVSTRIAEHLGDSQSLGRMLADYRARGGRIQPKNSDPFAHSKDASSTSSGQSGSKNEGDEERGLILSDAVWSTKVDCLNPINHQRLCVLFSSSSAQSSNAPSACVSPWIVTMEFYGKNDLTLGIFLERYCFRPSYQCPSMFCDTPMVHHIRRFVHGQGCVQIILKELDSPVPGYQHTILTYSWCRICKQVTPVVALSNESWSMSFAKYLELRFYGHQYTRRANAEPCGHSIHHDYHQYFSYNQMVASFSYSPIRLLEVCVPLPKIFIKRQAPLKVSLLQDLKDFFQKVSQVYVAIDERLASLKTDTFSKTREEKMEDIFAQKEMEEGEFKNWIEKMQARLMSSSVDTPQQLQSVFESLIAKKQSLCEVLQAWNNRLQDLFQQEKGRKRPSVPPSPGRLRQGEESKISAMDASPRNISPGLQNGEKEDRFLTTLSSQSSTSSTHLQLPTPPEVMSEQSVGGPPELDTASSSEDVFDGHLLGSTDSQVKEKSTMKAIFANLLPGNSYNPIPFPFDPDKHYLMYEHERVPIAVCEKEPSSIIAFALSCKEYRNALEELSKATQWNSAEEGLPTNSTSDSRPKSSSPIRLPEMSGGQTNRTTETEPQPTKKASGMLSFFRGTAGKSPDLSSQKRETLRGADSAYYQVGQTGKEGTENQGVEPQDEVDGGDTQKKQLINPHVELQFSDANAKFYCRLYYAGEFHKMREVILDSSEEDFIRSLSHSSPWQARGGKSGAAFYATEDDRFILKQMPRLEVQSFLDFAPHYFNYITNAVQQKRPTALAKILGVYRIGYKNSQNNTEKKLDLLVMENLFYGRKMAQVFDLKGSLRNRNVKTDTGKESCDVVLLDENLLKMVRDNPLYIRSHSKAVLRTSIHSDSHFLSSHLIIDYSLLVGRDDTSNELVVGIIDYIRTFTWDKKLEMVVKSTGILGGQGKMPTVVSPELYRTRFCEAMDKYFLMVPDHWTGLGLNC

Cc1cccc(/C=N/Nc2cc(N3CCOCC3)nc(OCCc3ccc(NC(=O)CCC(=O)N[C@H](C(=O)N4C[C@H](O)C[C@H]4C(=O)NCc4ccc(-c5scnc5C)cc4)C(C)(C)C)cc3)n2)c1 [Example 37, N^1—((S)-1-((2S,4R)-4-hydroxy-2-((4-(4-methylthiazol-5-yl)benzyl)carbamoyl)pyrrolidine-1-yl)-3,3-dimethyl-1-oxobutan-2-yl)-N^4-(4-(2-((4-(2-((E)-3-methylbenzylidene) hydrazino)-6-morpholinopyrimidin-2-yl)oxy)ethyl)phenyl)succinimide]
DC50: 100 to 10000 nM

Cc1cccc(/C=N/Nc2cc(N3CCOCC3)nc(OCCc3ccc(NC(=O)CCCCC(=O)N[C@H](C(=O)N4C[C@H](O)C[C@H]4C(=O)NCc4ccc(-c5scnc5C)cc4)C(C)(C)C)cc3)n2)c1 [Example 38, N^1—((S)-1-((2S,4R)-4-hydroxy-2-((4-(4-methylthiazol-5-yl)benzyl)carbamoyl)pyrrolidine-1-yl)-3,3-dimethyl-1-oxobutan-2-yl)-N^6-(4-(2-((4-(2-((E)-3-methylbenzylidene) hydrazino)-6-morpholinopyrimidin-2-yl)oxy)ethyl)phenyl)adipamide]
DC50: 1 to 100 nM

Cc1cccc(/C=N/Nc2cc(N3CCOCC3)nc(OCCc3ccc(NC(=O)CCCCCCC(=O)N[C@H](C(=O)N4C[C@H](O)C[C@H]4C(=O)NCc4ccc(-c5scnc5C)cc4)C(C)(C)C)cc3)n2)c1 [Example 39, N^1—((S)-1-((2S,4R)-4-hydroxy-2-((4-(4-methylthiazol-5-yl)benzyl)carbamoyl)pyrrolidine-1-yl)-3,3-dimethyl-1-oxobutan-2-yl)-N^8-(4-(2-((4-(2-((E)-3-methylbenzylidene) hydrazino)-6-morpholinopyrimidin-2-yl)oxy)ethyl)phenyl)octanediamide]
DC50: 1 to 100 nM

Cc1cccc(/C=N/Nc2cc(N3CCOCC3)nc(OCCc3ccc(NC(=O)CCCCCCCCC(=O)N[C@H](C(=O)N4C[C@H](O)C[C@H]4C(=O)NCc4ccc(-c5scnc5C)cc4)C(C)(C)C)cc3)n2)c1 [Example 40, N^1—((S)-1-((2S,4R)-4-hydroxy-2-((4-(4-methylthiazol-5-yl)benzyl)carbamoyl)pyrrolidine-1-yl)-3,3-dimethyl-1-oxobutan-2-yl)-N^10-(4-(2-((4-(2-((E)-3-methylbenzylidene) hydrazino)-6-morpholinopyrimidin-2-yl)oxy)ethyl)phenyl)decanediamide]
DC50: 1 to 100 nM

Cc1cccc(/C=N/Nc2cc(N3CCOCC3)nc(OCCc3ccc(NC(=O)CCCC(=O)N[C@H](C(=O)N4C[C@H](O)C[C@H]4C(=O)NCc4ccc(-c5scnc5C)cc4)C(C)(C)C)cc3)n2)c1 [Example 41, N^1—((S)-1-((2S,4R)-4-hydroxy-2-((4-(4-methylthiazol-5-yl)benzyl)carbamoyl)pyrrolidine-1-yl)-3,3-dimethyl-1-oxobutan-2-yl)-N^5-(4-(2-((4-(2-((E)-3-methylbenzylidene) hydrazino)-6-morpholinopyrimidin-2-yl)oxy)ethyl)phenyl)glutaramide]
DC50: 1 to 100 nM

Cc1cccc(/C=N/Nc2cc(N3CCOCC3)nc(OCCc3ccc(NC(=O)CCCCCC(=O)N[C@H](C(=O)N4C[C@H](O)C[C@H]4C(=O)NCc4ccc(-c5scnc5C)cc4)C(C)(C)C)cc3)n2)c1 [Example 42, N^1—((S)-1-((2S,4R)-4-hydroxy-2-((4-(4-methylthiazol-5-yl)benzyl)carbamoyl)pyrrolidine-1-yl)-3,3-dimethyl-1-oxobutan-2-yl)-N^7-(4-(2-((4-(2-((E)-3-methylbenzylidene) hydrazino)-6-morpholinopyrimidin-2-yl)oxy)ethyl)phenyl)heptanediamide]
DC50: 1 to 100 nM

Cc1cccc(/C=N/Nc2cc(N3CCOCC3)nc(OCCc3ccc(NC(=O)CCCCCCCC(=O)N[C@H](C(=O)N4C[C@H](O)C[C@H]4C(=O)NCc4ccc(-c5scnc5C)cc4)C(C)(C)C)cc3)n2)c1 [Example 43, N^1—((S)-1-((2S,4R)-4-hydroxy-2-((4-(4-methylthiazol-5-yl)benzyl)carbamoyl)pyrrolidine-1-yl)-3,3-dimethyl-1-oxobutan-2-yl)-N^9-(4-(2-((4-(2-((E)-3-methylbenzylidene) hydrazino)-6-morpholinopyrimidin-2-yl)oxy)ethyl)phenyl)nonediamide]
DC50: 1 to 100 nM

Cc1cccc(/C=N/Nc2cc(N3CCOCC3)nc(OCCc3ccc(NC(=O)CCCCCCCCCC(=O)N[C@H](C(=O)N4C[C@H](O)C[C@H]4C(=O)NCc4ccc(-c5scnc5C)cc4)C(C)(C)C)cc3)n2)c1 [Example 44, N^1—((S)-1-((2S,4R)-4-hydroxy-2-((4-(4-methylthiazol-5-yl)benzyl)carbamoyl)pyrrolidine-1-yl)-3,3-dimethyl-1-oxobutan-2-yl)-N^11-(4-(2-((4-(2-((E)-3-methylbenzylidene) hydrazino)-6-morpholinopyrimidin-2-yl)oxy)ethyl)phenyl)undecanediamide]
DC50: 1 to 100 nM

Cc1cccc(/C=N/Nc2cc(N3CCOCC3)nc(OCCc3ccc(NC(=O)CCCC(=O)N[C@H](C(=O)N4C[C@H](O)C[C@H]4C(=O)N[C@@H](C)c4ccc(-c5scnc5C)cc4)C(C)(C)C)cc3)n2)c1 [Example 45]
DC50: 1 to 100 nM

Cc1cccc(/C=N/Nc2cc(N3CCOCC3)nc(OCCc3ccc(NC(=O)CCCCC(=O)N[C@H](C(=O)N4C[C@H](O)C[C@H]4C(=O)N[C@@H](C)c4ccc(-c5scnc5C)cc4)C(C)(C)C)cc3)n2)c1 [Example 46]
DC50: 1 to 100 nM

Cc1cccc(/C=N/Nc2cc(N3CCOCC3)nc(OCCc3ccc(NC(=O)CCCCCC(=O)N[C@H](C(=O)N4C[C@H](O)C[C@H]4C(=O)N[C@@H](C)c4ccc(-c5scnc5C)cc4)C(C)(C)C)cc3)n2)c1 [Example 47]
DC50: 1 to 100 nM

Cc1cccc(/C=N/Nc2cc(N3CCOCC3)nc(OCCc3ccc(NC(=O)CCCCCCCCC(=O)N[C@H](C(=O)N4C[C@H](O)C[C@H]4C(=O)N[C@@H](C)c4ccc(-c5scnc5C)cc4)C(C)(C)C)cc3)n2)c1 [Example 48]
DC50: 1 to 100 nM

Cc1cccc(/C=N/Nc2cc(N3CCOCC3)nc(OCCc3ccc(NC(=O)CC[C@H](NC(=O)[C@@H]4C[C@@H](O)CN4C(=O)[C@@H](NC(=O)C4(F)CC4)C(C)(C)C)c4ccc(-c5scnc5C)cc4)cc3)n2)c1 [Example 49, (2S,4R)-1-((S)-2-(1-fluorocyclopropane-1-carboxamido)-3,3-dimethylbutanoyl)-4-hydroxy-N—((S)-4-((4-(2-((4-(2-((E)-3-methylbenzylidene)hydrazino)-6-morpholinopyrimidin-2-yl)oxy)ethyl)phenyl)amino)-1-(4-(4-methylthiazol-5-yl)phenyl)4-oxobutyl)pyrrolidine-2-carboxamide]
DC50: 1 to 100 nM

Cc1cccc(/C=N/Nc2cc(N3CCOCC3)nc(OCCc3ccc(NC(=O)CNC(=O)CC[C@H](NC(=O)[C@@H]4C[C@@H](O)CN4C(=O)[C@@H](NC(=O)C4(F)CC4)C(C)(C)C)c4ccc(-c5scnc5C)cc4)cc3)n2)c1 [Example 50, (2S,4R)-1-((S)-2-(1-fluorocyclopropane-1-carboxamido)-3,3-dimethylbutanoyl)-4-hydroxy-N—((S)-4-((2-((4-(2-((4-(2-((E)-3-methylbenzylidene)hydrazino)-6-morpholinopyrimidin-2-yl)oxy)ethyl)phenyl)amino)-2-oxoethyl)amino)-1-(4-(4-methylthiazol-5-yl)phenyl)4-oxobutyl)pyrrolidine-2-carboxamide]
DC50: 1 to 100 nM

Cc1cccc(/C=N/Nc2cc(N3CCOCC3)nc(OCCc3ccc(NC(=O)CCCNC(=O)CC[C@H](NC(=O)[C@@H]4C[C@@H](O)CN4C(=O)[C@@H](NC(=O)C4(F)CC4)C(C)(C)C)c4ccc(-c5scnc5C)cc4)cc3)n2)c1 [Example 51, (2S,4R)-1-((S)-2-(1-fluorocyclopropane-1-carboxamido)-3,3-dimethylbutanoyl)-4-hydroxy-N—((S)-4-((4-((4-(2-((4-(2-((E)-3-methylbenzylidene)hydrazino)-6-morpholinopyrimidin-2-yl)oxy)ethyl)phenyl)amino)-4-oxobutyl)amino)-1-(4-(4-methylthiazol-5-yl)phenyl)4-oxobutyl)pyrrolidine-2-carboxamide]
DC50: 1 to 100 nM

Cc1cccc(/C=N/Nc2cc(N3CCOCC3)nc(OCCc3ccc(NC(=O)CCCCCNC(=O)CC[C@H](NC(=O)[C@@H]4C[C@@H](O)CN4C(=O)[C@@H](NC(=O)C4(F)CC4)C(C)(C)C)c4ccc(-c5scnc5C)cc4)cc3)n2)c1 [Example 52, (2S,4R)-1-((S)-2-(1-fluorocyclopropane-1-carboxamido)-3,3-dimethylbutanoyl)-4-hydroxy-N—((S)-4-((6-((4-(2-((4-(2-((E)-3-methylbenzylidene)hydrazino)-6-morpholinopyrimidin-2-yl)oxy)ethyl)phenyl)amino)-6-oxohexyl)amino)-1-(4-(4-methylthiazol-5-yl)phenyl)4-oxobutyl)pyrrolidine-2-carboxamide]
DC50: 1 to 100 nM

Cc1cccc(/C=N/Nc2cc(N3CCOCC3)nc(OCCc3ccc(NC(=O)COc4cc(-c5scnc5C)ccc4CNC(=O)[C@@H]4C[C@@H](O)CN4C(=O)[C@@H](NC(=O)C4(F)CC4)C(C)(C)C)cc3)n2)c1 [Example 53, (2S,4R)-1-((S)-2-(1-fluorocyclopropane-1-carboxamido)-3,3-dimethylbutanoyl)-4-hydroxy-N-(2-(2-((4-(2-((4-(2-((E)-3-methylbenzylidene)hydrazino)-6-morpholinopyrimidin-2-yl)oxy)ethyl)phenyl)amino)-2-oxoethoxy)-4-(4-methylthiazol-5-yl)benzyl)pyrrolidine-2-carboxamide]
DC50: 1 to 100 nM

— US20260317299A1, “PIKFYVE PROTEIN KINASE DEGRADATION AGENT AND USE THEREOF” (Shanghai Institute of Organic Chemistry, Chinese Academy of …, priority 2023, published 2026)
